ChEMBL document CHEMBL5252607, “Synthesis and biological evaluation of coumarin derivatives as selective CYP2A6 inhibitors” (Bioorg Med Chem Lett, 2023)
pIC50, pKi: −log10 of the molar value.

Tests used:
Format in all cases: ADME
[1] = target: T1, Cytochrome P450 2A6 (Homo sapiens, UniProt P11509); assay: Inhibition of CYP2A6 (unknown origin)
T1 sequence (P11509 whole entry): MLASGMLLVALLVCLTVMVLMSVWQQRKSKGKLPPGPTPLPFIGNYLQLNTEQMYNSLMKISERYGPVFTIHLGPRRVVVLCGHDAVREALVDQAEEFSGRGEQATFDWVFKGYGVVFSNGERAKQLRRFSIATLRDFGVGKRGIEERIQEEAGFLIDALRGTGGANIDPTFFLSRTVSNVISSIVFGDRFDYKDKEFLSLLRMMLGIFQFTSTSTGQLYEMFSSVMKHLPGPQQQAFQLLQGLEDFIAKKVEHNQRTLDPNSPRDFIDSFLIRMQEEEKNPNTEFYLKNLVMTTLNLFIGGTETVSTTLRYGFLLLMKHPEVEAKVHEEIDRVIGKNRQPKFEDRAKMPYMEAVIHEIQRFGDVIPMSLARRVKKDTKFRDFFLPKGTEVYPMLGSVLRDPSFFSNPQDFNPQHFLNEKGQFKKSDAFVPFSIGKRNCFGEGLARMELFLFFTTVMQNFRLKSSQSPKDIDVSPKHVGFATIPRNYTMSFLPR

[2] = target: T2, CYP2A6 (Homo sapiens, UniProt P11509); assay: Inhibition of CYP2A6 (unknown origin) assessed as residual activity preincubated for 10 mins
T2 sequence (P11509 whole entry): T1 sequence (P11509 whole entry)

[3] = target: T1, Cytochrome P450 2A6; assay: Competitive inhibition of CYP2A6 (unknown origin)
[4] = target: T3, Cytochrome P450 3A4 (Homo sapiens, UniProt P08684); assay: Mixed type inhibition of CYP3A4 (unknown origin)
[5] = system: CYP3A4 / CYP2A6; assay: Selectivity ratio of Ki for mixed type inhibition of CYP3A4 (unknown origin) to ratio of Ki for competitive inhibition of CYP2A6 (unknown origin); conditions: human; read-out: Ratio Ki
[6] = target: T1, Cytochrome P450 2A6; assay: Mixed type inhibition of CYP2A6 (unknown origin)
[7] = target: T3, Cytochrome P450 3A4; assay: Non competitive inhibition of CYP3A4 (unknown origin)
[8] = system: CYP3A4 / CYP2A6; assay: Selectivity ratio of Ki for non-competitive inhibition of CYP3A4 (unknown origin) to ratio of Ki for mixed type inhibition of CYP2A6 (unknown origin); conditions: human; read-out: Ratio Ki
[9] = target: T3, Cytochrome P450 3A4; assay: Inhibition of CYP3A4 (unknown origin)
[10] = system: CYP3A4 / CYP2A6; assay: Selectivity ratio of Ki for non-competitive inhibition of CYP3A4 (unknown origin) to ratio of Ki for competitive inhibition of CYP2A6 (unknown origin); conditions: human; read-out: Ratio Ki

T3 sequence (P08684 whole entry): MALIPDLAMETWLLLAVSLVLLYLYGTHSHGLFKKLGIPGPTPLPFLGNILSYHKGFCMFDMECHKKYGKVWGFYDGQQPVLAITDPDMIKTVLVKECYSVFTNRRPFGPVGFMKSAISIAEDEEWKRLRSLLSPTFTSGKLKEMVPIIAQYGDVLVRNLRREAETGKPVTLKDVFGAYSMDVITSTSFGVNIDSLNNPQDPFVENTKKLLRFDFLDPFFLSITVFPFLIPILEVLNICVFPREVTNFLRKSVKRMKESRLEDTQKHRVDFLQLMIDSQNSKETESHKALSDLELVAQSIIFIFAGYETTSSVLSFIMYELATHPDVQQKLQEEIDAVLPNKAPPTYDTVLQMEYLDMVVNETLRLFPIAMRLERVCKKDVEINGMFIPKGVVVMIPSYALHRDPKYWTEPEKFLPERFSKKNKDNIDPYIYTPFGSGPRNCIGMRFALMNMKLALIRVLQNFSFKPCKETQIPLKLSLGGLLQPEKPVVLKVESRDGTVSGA

Row | SMILES | pIC50 [1] | activity [2] | pKi [3] | pKi [4] | selectivity ratio [5] | pKi [6] | pKi [7] | selectivity ratio [8] | pIC50 [9] | selectivity ratio [10]
1 | C#CCOc1cccc2oc(=O)ccc12 | 7.40 | 57% | 8.00 | 4.33 | 4660 |  |  |  |  | 
2 | COc1cccc2oc(=O)ccc12 | 6.89 |  |  |  |  | 7.30 | 3.35 | 8970 |  | 
3 | C=CCOc1cccc2oc(=O)ccc12 | 7.30 |  | 7.52 | 4.55 | 937 |  |  |  |  | 
4 | CCCOc1cccc2oc(=O)ccc12 | 5.97 |  | 6.27 |  |  |  |  |  | < 3.60 | 
5 | COc1c2occc2cc2ccc(=O)oc12 [METHOXSALEN] |  | 52% |  |  |  |  |  |  |  | 
6 | CCOc1cccc2oc(=O)ccc12 | 6.77 |  | 7.10 |  |  |  | 3.37 |  |  | 5300
7 | COc1ccc2oc(=O)ccc2c1 | 6.70 |  | 6.60 |  |  |  |  |  | < 3.60 | 
8 | COc1cccc2ccc(=O)oc12 | 5.13 | 62% | 5.40 |  |  |  |  |  | < 3.60 | 
